Source: publication PMC13046382, “Peptidoglycan recycling is critical for cell division, cell wall integrity, and β-lactam resistance in Caulobacter crescentus” (eLife, 2026)

What was measured:
[1] = target: T1, NagZ (Caulobacter vibrioides, UniProt A0A0H3C9G9); assay: preincubation with NagZ, then coupled AmiR step and LC-MS; format: biochemical; settings: 10 µM NagZ, 50 mM HEPES, 200 mM NaCl, 10% glycerol, pH 7.2, 37 °C, 16 hr
T1 construct: gene CCNA_02085; His6-SUMO fusion expressed in E. coli Rosetta(DE3)pLysS, tag cut by SUMO protease
T1 sequence (A0A0H3C9G9 entry or part of it): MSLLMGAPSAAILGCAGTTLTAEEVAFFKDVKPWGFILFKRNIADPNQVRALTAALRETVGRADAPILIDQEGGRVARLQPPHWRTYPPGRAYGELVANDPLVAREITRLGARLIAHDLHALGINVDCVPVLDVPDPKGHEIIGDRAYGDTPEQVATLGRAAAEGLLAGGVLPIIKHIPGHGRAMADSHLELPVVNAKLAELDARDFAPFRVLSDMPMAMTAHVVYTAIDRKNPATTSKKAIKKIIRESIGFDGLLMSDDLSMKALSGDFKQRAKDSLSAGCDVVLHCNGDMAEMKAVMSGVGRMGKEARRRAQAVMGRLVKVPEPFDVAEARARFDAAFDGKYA

[2] = target: T2, AmiR (Caulobacter vibrioides, UniProt A0A0H3CAA9); assay: HPLC of reaction products; format: biochemical; settings: 20 mM HEPES-NaOH, 50 mM NaCl, 1 mM MgCl2, pH 7.5, 37 °C, 16 hr; mixture of anhydro-muropeptides from Slt70-digested sacculi
T2 construct: gene CCNA_02650; His6-SUMO fusion expressed in E. coli Rosetta(DE3)pLysS, tag cut by SUMO protease
T2 sequence (A0A0H3CAA9 entry or part of it): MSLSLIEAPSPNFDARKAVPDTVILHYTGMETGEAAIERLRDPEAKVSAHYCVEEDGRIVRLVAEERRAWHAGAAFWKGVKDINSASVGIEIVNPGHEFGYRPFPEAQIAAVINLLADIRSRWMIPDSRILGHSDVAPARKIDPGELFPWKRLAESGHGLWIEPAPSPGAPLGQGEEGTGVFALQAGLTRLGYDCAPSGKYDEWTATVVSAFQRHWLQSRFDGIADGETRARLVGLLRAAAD

[3] = target: T3, CrbA (Caulobacter vibrioides, UniProt A0A0H3C8K5); assay: competition with bocillin-FL labelling, SDS-PAGE fluorescence; format: cell-based; settings: covalent; crude membranes in PBS, 1-100 µg/mL ampicillin for 2 hr at room temperature, active-site serine
T3 construct: native protein in crude membrane fraction, gel band
T3 sequence (A0A0H3C8K5 entry or part of it): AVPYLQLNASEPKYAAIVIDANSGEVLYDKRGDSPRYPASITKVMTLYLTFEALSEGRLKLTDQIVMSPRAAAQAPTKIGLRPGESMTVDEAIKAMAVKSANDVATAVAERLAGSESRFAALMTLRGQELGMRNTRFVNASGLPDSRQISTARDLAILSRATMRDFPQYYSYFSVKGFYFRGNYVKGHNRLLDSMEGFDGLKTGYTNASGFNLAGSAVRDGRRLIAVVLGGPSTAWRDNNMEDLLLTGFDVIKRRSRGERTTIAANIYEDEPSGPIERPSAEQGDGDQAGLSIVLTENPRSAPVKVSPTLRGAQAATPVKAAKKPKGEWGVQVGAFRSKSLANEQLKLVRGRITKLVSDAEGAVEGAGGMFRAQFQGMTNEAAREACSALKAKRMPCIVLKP

[4] = target: T4, PBP3 (Caulobacter vibrioides, UniProt B8H0A0); assay: as above; format: cell-based; settings: covalent, crude membranes in PBS
T4 construct: gene ftsI; native protein in crude membrane fraction, gel band
T4 sequence (B8H0A0 1-589): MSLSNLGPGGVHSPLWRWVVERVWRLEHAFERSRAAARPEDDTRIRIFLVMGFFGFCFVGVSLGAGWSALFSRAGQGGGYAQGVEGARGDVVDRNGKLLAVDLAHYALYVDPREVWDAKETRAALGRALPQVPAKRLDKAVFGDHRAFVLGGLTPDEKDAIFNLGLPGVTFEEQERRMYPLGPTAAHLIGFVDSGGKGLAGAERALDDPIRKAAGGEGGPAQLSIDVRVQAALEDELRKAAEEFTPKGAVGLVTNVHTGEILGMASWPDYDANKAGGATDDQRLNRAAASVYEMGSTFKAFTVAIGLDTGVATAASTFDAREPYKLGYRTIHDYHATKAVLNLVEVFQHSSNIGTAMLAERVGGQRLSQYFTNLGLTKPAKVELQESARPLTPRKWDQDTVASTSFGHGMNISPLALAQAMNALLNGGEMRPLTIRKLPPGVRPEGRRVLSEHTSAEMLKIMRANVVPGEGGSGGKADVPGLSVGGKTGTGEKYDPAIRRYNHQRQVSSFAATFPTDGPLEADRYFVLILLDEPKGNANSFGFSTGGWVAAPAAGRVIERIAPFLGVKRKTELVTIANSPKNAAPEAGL

Compound: CC(=O)N[C@H]1[C@H](O[C@H]2[C@H](O[C@H](C)C(=O)N[C@@H](C)C(=O)N[C@H](CCC(=O)N[C@@H](CCC[C@@H](N)C(=O)O)C(=O)N[C@H](C)C(=O)O)C(=O)O)[C@@H](NC(C)=O)[C@@H]3OC[C@H]2O3)O[C@H](CO)[C@@H](O)[C@@H]1O [GlcNAc–anhMurNAc-tetrapeptide]
- preincubation with NagZ, then coupled AmiR step and LC-MS [1]: substrate anhMurNAc-tetrapeptide, generated by preincubating purified GlcNAc–anhMurNAc-tetrapeptide with NagZ
- HPLC of reaction products [2]: AmiR efficiently hydrolyzed tetrapeptide-containing fragments

Compound: CC1(C)S[C@@H]2[C@H](NC(=O)[C@H](N)c3ccccc3)C(=O)N2[C@H]1C(=O)O [ampicillin]
- competition with bocillin-FL labelling, SDS-PAGE fluorescence [3]: all but one of them (PbpX) remained unlabeled
- competition with bocillin-FL labelling, SDS-PAGE fluorescence ([4]; 1-100 µg/mL ampicillin for 2 hr at room temperature, active-site serine): Among the ampicillin targets identified were the essential, cell division-specific monofunctional transpeptidase PBP3

Compound: CC1=C(C(=O)O)N2C(=O)[C@@H](NC(=O)[C@H](N)c3ccccc3)[C@H]2SC1 [cephalexin]
- competition with bocillin-FL labelling, SDS-PAGE fluorescence ([4]; 5 µg/mL cefalexin for 2 hr at room temperature): The labeling of PBP3 and some bifunctional PBPs was also abolished by preincubation with cephalexin
